Experimental data reported in paper PMC8302598, “Rapid discovery of self-assembling peptides with one-bead one-compound peptide library” (Nature Communications, 2021).
Values joined by “and” are separate entries in the source; they are usually repeats but may differ in a detail not shown here. Equal values may be shown once. “Also recorded” adds a separate entry of the source.

Key:
[1] = Critical micelle concentration (CMC); assay type: physicochemical; conditions: soluble HPLC-purified peptide, aqueous
Experimental: To estimate the propensity of the identified peptides to self-assemble, the critical micelle concentrations (CMC) of the eight positive peptides and four negative peptides were determined, and the results are shown in Table 1 and Supplementary Figs. 13, 14. The CMC of all the eight positive peptides were detectable and found to range between 8.4 and 14.8 μM, indicating the propensity for these peptides to self-assemble under aqueous environment. […] Hydrophobicity of peptides can be predicted by the value of GRAVY[28] with more negative value for more hydrophilic peptides. Of the four negative assembling peptides, two have a negative GRAVY value. […] Experimental testing, such as the screening strategy described in this work, is needed. This is because multiple factors, including hydrophobicity, hydrogen-bonding, electrostatic interactions, and positions of each residue within the peptides, all contribute to the assembling and final morphology of the self-assembled nano-structure.

[2] = system: HeLa cells; test: Cell uptake pathway analysis (4 °C and endocytosis inhibitors); assay type: cell-based; conditions: for Cell uptake mechanism: 50 μM, 37 or 4 °C, chlorpromazine 50 μM, CLSM, n=3; for Cell uptake mechanism / Cell uptake in the presence of amiloride and M-β-CD: amiloride 2 mM, M-β-CD 5 mM; for Cell uptake at 4 °C: FITC-labeled nano-assembly (3% labeled), 4 °C vs 37 °C; for Cell uptake in the presence of amiloride and M-β-CD: 50 μM peptide
Experimental: Finally, we examined the biological effects and cellular distribution of the eight self-assembling peptides on HeLa cells. […] In order to observe the nanomaterials under fluorescent microscopy, each peptide preparation was spiked with 3% of the same peptide N-terminally labeled with FITC, and then added to HeLa cells at a final concentration of 40 μM. […] After 4 h of incubation with the peptide assemblies, the cells were observed under a fluorescent microscope (Figs. 4c, d and Supplementary 22). […] It is important to note that LDFPI nanoparticle was small (8 nm diameter) even after 4 h incubation. Its small size may in part explain its ability to pass through the nuclear pore complexes[32],[33]. […] To evaluate the cell uptake mechanism of peptide assemblies (YFTEF, ISDNL, and FGFDP) into the cytoplasm, we treated the cells at 4 °C or with various endocytosis inhibitors (Supplementary Fig. 23). […]
Supplementary Figure 23 . Cell uptake pathway analysis for FITC-labeled pentapeptide assemblies YFTEF, ISDNL and […]. a) CLSM images of HeLa cells incubated with pentapeptides (50 μ M ) at di fferent temperatures (37 or 4 °C) and in the presence of various endocytosis inhibitors, such as amiloride (2 mM), M-β-CD (5 mM), and chlorpromazine (50 μM). The scale bar is 10 μm. b) Relevant quantitative analysis of images from ‘a’. 3% of the assembled peptides was N-terminally labeled with FITC, E rror ba rs represent Standard Deviation (n=3). […]
(§1) To elucidate the cell uptake pathways of pentapeptides, we quantified the fluorescence intensity of the HeLa cells after incubation with FITC-labeled nano-assembly of YFTEF, ISDNL, FAGFT, FGFDP, at 37 and 4 °C, respectively (3% of the peptide assembly were N-terminally labeled with FITC for tracking). There were nearly no uptake of pentapeptides by HeLa cells at 4 °C, which is consistent with mechanism of cell uptake by endocytosis. We have also examined the effects of cell uptake by various endocytosis inhibitors: amiloride (2 mM, inhibitor of endocytosis), M-β-CD (5 mM, inhibitor of caveolae-dependent endocytosis), and chlorpromazine (50 μM, inhibitor of clathrin-dependent endocytosis).
(§2) (1 picture or pasted object on this page, not shown here)
Figure R11. Cell uptake pathway detection. a) CLSM images of HeLa cells incubated with pentapeptides (50 μM) at different temperatures (37 or 4 °C) and in the presence of various endocytosis inhibitors, such as amiloride (2 mM), M-13-CD (5 mM), and chlorpromazine(50 μM), respectively. The scale bar is 10 μm. b) Relevant quantitative analysis in ‘a’. […]

[3] = system: HeLa cells; test: Time-dependent co-localization of FITC-labeled peptides with lysosomes (CLSM); assay type: cell-based; conditions: 50 μM; for Pearson correlation coefficient, peptide vs lysosomes, 2 h: peptide for 2 h; for Pearson correlation coefficient, peptide vs lysosomes, 4 h: peptide for 2 h and DMEM for 2 h; for Pearson correlation coefficient, peptide vs lysosomes, 8 h: peptide for 2 h and DMEM for 6 h
Experimental: Supplementary Figure 24. a) Time-dependent (2, 4, 8 h) CLSM images for monitoring and quantitatively analyzing uptake of fluorescent peptide assemblies (YFTEF, ISDNL, and FGFDP at 50 μM) by HeLa cells. The scale bar is 10 μm. b) Corresponding colocalization analysis of images from ‘a’. […]
Regarding the entrance of nanoparticles into HeLa cells, we have carried out additional experiments to address reviewer’s concern. To track the biodistribution of these peptides in the cytosol, peptides YFTEF, ISDNL and FGFDP were labeled by addition of FITC-labeled peptides (FITC-YFTEF, FITC-ISDNL, FITC-FGFDP) at 3% level, respectively, prior to self-assembly, and then incubated with HeLa cells for 2 h. The incubated cells were then washed with PBS three times and further incubated with Dulbecco's modified eagle medium without peptide for another 2 and 6 h. The lysosomes of the cells were stained with red fluorescence after 2 (peptide for 2 h), 4 (peptide for 2 h and DMEM for 2 h), or 8 h (peptide for 2 h and DMEM for 6 h) incubation, followed by CLSM observation.
For ISDNL, good co-localization (Pearson correlation coefficient: 0.92) between peptides and lysosomes […]
lysosomes (colocalization from 0.92 at 2 h, to 0.76 at 4 h and 0.69 at 8 h).
ISDNL based nanoparticles could escape from lysosomes over time.
For YFTEF, good co-localization (yellow fluorescence) between YFTEF (green fluorescence) and with […]
The co-localization efficiency for YFTEF and lysosomes remained high over time (4 h, 0.93; 8 h, 0.91).
For FGFDP, the Pearson correlation coefficient of lysosome was determined to be about 0.7 for 2 (0.74), 4 (0.79), 8 h (0.72). It seems that FGFDP might have escaped from lysosomes prior to the 2 h time point.
In order to confirm this hypothesis, we did the co-localization study at earlier time points: 30 min to 1 h.
The results reveal that FGFDP increased the distribution in the lysosome from 30 min (Pearson correlation coefficient: 0.59) to 1 h (Pearson correlation coefficient: 0.94), and then decreased to 0.74 at 2h. These […]
escape from lysosomes sometime between 1-2 h.

[4] = system: HeLa cells; test: Cell uptake efficiency by fluorescence of lysed cells; assay type: cell-based; conditions: HeLa cells incubated with peptides 4 h, fluorescence quantified
Experimental: and FGFDP entered lysosome and then escaped. The ISDNL escaped in 4 h, and FGFDP escaped between 1-2 h. Both ISDNL and FGFDP had capability of lysosomal escape, which may be useful for gene or nucleic acid delivery, as implied by the reviewer.
Figure R10. a. Time-dependent CLSM images for monitoring and quantitatively analyzing HeLa cells incubated with 50 μM pentapeptide nano-assembly of YFTEF, ISDNL, and FGFDP, b. corresponding co-localization analysis of experiment shown in “a”.
To confirm how efficient the peptides (YFTEF, ISDNL, and FGFDP) enter living cells, HeLa cells were incubated with peptides for 4 h, the cells were then lysed and fluorescence quantified to calculate the […]
Table R2. Cell uptake efficiency of peptides. […]
as §1, §2

[5] = FITC-labeled peptide/Lyso-Tracker co-localization

| Substance | CMC [1] [µM] | Cell uptake mechanism [2] | Cell uptake at 4 °C [2] | Pearson correlation coefficient, peptide vs lysosomes, 2 h ([3]; 3% FITC-labeled peptide) | Pearson correlation coefficient, peptide vs lysosomes, 4 h [3] | Pearson correlation coefficient, peptide vs lysosomes, 8 h [3] | Cell uptake efficiency [4] [%] | also measured |
| --- | --- | --- | --- | --- | --- | --- | --- | --- |
| YFTEF [self-assembling pentapeptide identified from OBOC library] | 11.4 | clathrin dependent endocytosis | nearly no uptake | 0.92 | 0.93 | 0.91 | 3.9 | Retention in lysosomes [3, 5]: remained in lysosomes at 8 h; also recorded: remained in lysosomes for 8 h without obvious escape |
| ISDNL [self-assembling pentapeptide identified from OBOC library] | 9.4 | caveolae-dependent endocytosis and micropinocytosis | nearly no uptake | 0.92 | 0.76 | 0.69 | 2.2 | Cell uptake in the presence of amiloride and M-β-CD [2]: significantly decreased |
| LDFPI [self-assembling pentapeptide identified from OBOC library] | 8.4 | – | – | – | – | – | – | – |
| FAGFT [self-assembling pentapeptide identified from OBOC library] | 13.9 | – | nearly no uptake | – | – | – | – | Cell uptake in the presence of amiloride and M-β-CD [2]: significantly decreased |
| FFVDF [self-assembling pentapeptide identified from OBOC library, forms nanofibers] | 14.4 | – | – | – | – | – | – | – |
| FTISD [self-assembling pentapeptide identified from OBOC library] | 10.04 | – | – | – | – | – | – | – |
| FGFDP [self-assembling pentapeptide identified from OBOC library] | 14.8 | both caveolae-dependent and clathrin-dependent endocytosis | nearly no uptake | 0.74 | 0.79 | 0.72 | 4.8 | Pearson correlation coefficient, peptide vs lysosomes, 30 min ([3]; 3% FITC-labeled peptide, 30 min): 0.59; Pearson correlation coefficient, peptide vs lysosomes, 1 h ([3]; 3% FITC-labeled peptide, 1 h): 0.94; Time of escape from lysosomes [3, 5]: 1 to 2 h and ~1.5 h |
| ITSVV [self-assembling pentapeptide identified from OBOC library] | 14.8 | – | – | – | – | – | – | – |
